Legend:
[1] = cited from earlier work
[2] = target: T1, carnitine acetyltransferase (Columba livia, UniProt P52826); assay: carnitine acetyltransferase inhibition assay (coupled CS/MDH, NADH at 340 mμ); assay type: biochemical
T1 sequence (P52826 31-627): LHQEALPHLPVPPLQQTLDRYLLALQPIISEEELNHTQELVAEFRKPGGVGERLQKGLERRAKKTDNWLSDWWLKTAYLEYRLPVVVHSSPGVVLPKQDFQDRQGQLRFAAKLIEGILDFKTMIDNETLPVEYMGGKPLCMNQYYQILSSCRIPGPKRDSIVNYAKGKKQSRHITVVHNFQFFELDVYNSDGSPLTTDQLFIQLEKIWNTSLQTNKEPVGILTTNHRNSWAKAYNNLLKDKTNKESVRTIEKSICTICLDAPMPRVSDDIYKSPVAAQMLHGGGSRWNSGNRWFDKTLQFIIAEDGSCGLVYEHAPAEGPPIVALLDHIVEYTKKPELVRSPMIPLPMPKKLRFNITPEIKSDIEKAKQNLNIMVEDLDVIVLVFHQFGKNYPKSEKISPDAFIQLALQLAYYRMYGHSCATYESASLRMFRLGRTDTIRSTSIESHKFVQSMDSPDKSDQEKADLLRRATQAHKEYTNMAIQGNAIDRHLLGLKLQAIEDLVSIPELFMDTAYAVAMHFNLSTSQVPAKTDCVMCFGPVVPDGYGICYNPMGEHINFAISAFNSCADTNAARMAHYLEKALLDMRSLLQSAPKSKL
Description: D,L-3-acetamido-4-trimethylaminobutyric acid.H2 O, referred to hereinafter as AAC, was assayed for inhibition of carnitine acetyltransferase.
The procedure used is described in Fritz, I. B., Schultz, S. K., and Srere, P. A., "Properties of Partially Purified Carnitine Acetyltransferase", J. Biol. Chem., 238, 2509-2517 (1963).
The assay was based on the following reactions wherein CAT is used to denote carnitine acetyltransferase, CS is used to denote citrate synthase, MDH is used to denote malate dehydrogenase, NAD is used to denote β-nicotinamide adenine dinucleotide (unreduced form) and NADH is used to denote β-nicotinamide adenine dinucleotide (reduced form):
The assay is based on the fact that the velocity of reaction to produce acetyl-Coenzyme A is reduced to the extent that CAT is inhibited. Reactions (2) and (3) are a detection system for acetyl-Coenzyme A wherein acetyl-Coenzyme A, as it is produced, reacts with oxaloacetate thereby causing the MDH to catalyze production of oxaloacetate to replace that which is used and resulting in production of NADH which is detected using a spectrophotometer based on its property of absorbing light at 340 mμ. Thus, when CAT is bound and inhibited, the rate of NADH production is decreased and the rate of increase of absorbency at 340 mμ is decreased. The results are readily compiled in a Lineweaver-Burk plot of the reciprocal of reaction velocity versus the reciprocal of concentration of acetylcarnitine and the data can be analyzed to o provide Ki ' values as mentioned above.
Sixteen runs were carried out. They consisted of a set of 4 runs where 1 mM of D,L-acetylcarnitine (pH 8.0) was included, a set of 4 runs where 2 mM of D,L-acetylcarnitine was included, a set of 4 runs where 5 mM of D,L-acetylcarnitine was included and a set of 4 runs where 10 mM of D,L-acetylcarnitine was included. In each set of runs, one run was conducted without AAC, one run was conducted with 0.1 mM AAC, one run was conducted with 0.5 mM AAC, and one run was conducted with 1.0 mM AAC.
Each run was carried out utilizing a cuvette with 1 ml total being added to it. To each cuvette was added 0.7 ml of a premix of aqueous solutions of Tris-HCl buffer, NAD^+, dithiothreitol, and Tris D,L-malate, pH of 8.0 (concentrations in the premix were as follows: Tris-HCl, 143 mM; NAD^+, 0.71 mM; dithiothreitol, 4.3 mM; and Tris D,L-malate, 14.3 mM, the selected amount of D,L-acetylcarnitine as described above, 0.05 ml of a 4 mM aqueous solution of Coenzyme A, 0.025 ml of a 168 units/ml solution of CS, 0.025 ml of a 240 units/ml solution of MDH, the selected amount of AAC as described above, and water to 0.995 ml. The D,L-acetylcarnitine was added utilizing solution of concentration of 100 mM (in other words 0.010 ml for the first set of runs, 0.020 ml for the second set of runs, 0.050 ml for the third set of runs, 0.100 ml for the fourth set of runs). The AAC was added utilizing solution of concentration of 100 mM (in other words, additions for runs in each set were of 0 ml, 0.001 ml, 0.005 ml and 0.010 ml).
After the above described reactants were added, each cuvette and its contents were incubated for 15 minutes at 30° C.
Directly after the incubation period, 0.005 ml of CAT (concentration 5 units/ml) was added in each case.
The reaction rate in each case was measured as described above as a function of change in absorbance at 340 mμ (providing a time course of NADH formation) and was expressed as mole NADH/min. (1 mM NADH =6.2×ΔA340).
A Ki 'value for the D,L form of AAC was calculated to be 5×10^-5 M which is 10^-2 to 10^-3 times the Ki ' values found by Fritz and Schultz for the compounds they tested.

CAT = target: T2, CAT (Mus musculus, UniProt P47934); assay: carbon 14 CO2 output of mice given carbon 14 tagged acetylcarnitine; assay type: in vivo; settings: 5 mmol/kg intraperitoneally, 0.5 mmol/kg carbon 14 acetylcarnitine subcutaneously, monitored 6 hours
T2 construct: from tissue; host or cells: whole living mice (endogenous enzyme)
T2 sequence (P47934 1-626): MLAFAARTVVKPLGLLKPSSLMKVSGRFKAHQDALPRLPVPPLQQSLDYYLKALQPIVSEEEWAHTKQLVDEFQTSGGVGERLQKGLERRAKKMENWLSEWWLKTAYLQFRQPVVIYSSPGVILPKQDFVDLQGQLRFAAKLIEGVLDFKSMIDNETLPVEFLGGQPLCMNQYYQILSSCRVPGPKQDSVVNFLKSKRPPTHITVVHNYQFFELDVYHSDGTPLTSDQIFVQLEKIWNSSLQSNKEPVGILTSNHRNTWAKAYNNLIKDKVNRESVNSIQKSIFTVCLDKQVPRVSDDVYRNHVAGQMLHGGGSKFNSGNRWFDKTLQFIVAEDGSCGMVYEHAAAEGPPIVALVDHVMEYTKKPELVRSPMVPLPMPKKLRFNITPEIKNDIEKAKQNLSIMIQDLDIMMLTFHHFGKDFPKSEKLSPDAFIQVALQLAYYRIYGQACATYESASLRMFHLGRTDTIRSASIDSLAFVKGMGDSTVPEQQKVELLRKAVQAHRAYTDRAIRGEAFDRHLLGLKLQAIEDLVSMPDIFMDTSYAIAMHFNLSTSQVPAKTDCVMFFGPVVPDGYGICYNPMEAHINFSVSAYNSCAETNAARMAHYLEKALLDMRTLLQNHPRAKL
Description: (§1) Four mice were injected subcutaneously with 0.5 mmol/kg carbon 14 tagged acetylcarnitine. Two of them were injected intraperitoneally with 5 mmol/kg of AAC. The carbon 14 CO2 output of the mice was monitored every 15 minutes for 6 hours and for each mouse a graph was prepared with time on the X-axis and % of radiolabelled CO2 on the Y-axis. […] The amount of AAC administered was not toxic to the mice.

[3] = toxicity of administered amount in mice; assay type: in vivo; settings: 5 mmol/kg intraperitoneally
Description: as §1

[4] = system: carnitine palmitoyltransferase; assay: binding and inhibition of carnitine palmitoyltransferase; assay type: biochemical; settings: no test described

C[N+](C)(C)CC(CC(=O)[O-])OC(=O)CBr [Bromoacetyl-L-carnitine]
toxicity in vivo [1]: toxicity due to release of bromine and/or bromoacetate

C[N+](C)(C)CC(CC(=O)[O-])NC(=O)CBr (racemic) [D,L-3-bromoacetamido-4-trimethylaminobutyricacid.H2 O]
reversibility of binding action [2]: irreversible
inhibition of CAT ([2]; no test described): inhibits CAT similarly to AAC

CC(=O)NC(CC(=O)[O-])C[N+](C)(C)C (racemic) [AAC, D,L-3-acetamido-4-trimethylaminobutyric acid.H2 O]
Ki' relative to the Ki' values found by Fritz and Schultz for the compounds they tested [2]: 10^-2 to 10^-3 times
reversibility of binding action [2]: reversible by dilution
Ki ([2]; D,L form, Lineweaver-Burk plot, 1-10 mM D,L-acetylcarnitine, pH 8.0, 30° C): 50 µM
mode of inhibition of CAT ([2]; Lineweaver-Burk plot, same site as acetyl carnitine): competitive inhibitor
inhibition at 100 µM ([2]; at a concentration of 0.1 mM, read-out: inhibition of formation of acetyl-Coenzyme A): 34%
inhibition at 500 µM ([2]; at a concentration of 0.5 mM, read-out: inhibition of formation of acetyl-Coenzyme A): 67%
inhibition at 1000 µM ([2]; at a concentration of 1 mM, read-out: inhibition of formation of acetyl-Coenzyme A): 81%
binding to CAT relative to acetylcarnitine (times more tightly) ([2]; from Lineweaver-Burk plot): 18 times
rate of radiolabelled CO2 output (CAT): retarded rate of radiolabelled CO2 output
toxicity of the amount administered [3]: not toxic

CCCCCCCCCCCCCCCC(=O)NC(CC(=O)[O-])C[N+](C)(C)C (racemic) [PAC, D,L-3-palmitoamido-4-trimethylaminobutyric acid.H2 O]
binding and inhibition of carnitine palmitoyltransferase [4]: readily binds to and inhibits carnitine palmitoyltransferase

From patent US4781863A, “Aminocarnitines” (Cornell Research Foundation, Inc., priority 1987, dated 1988)
